Laboratory results taken from patent publication US20020094524A1, “Compositions and methods for inhibiting HIV infection” (priority 2000, published 2002).

What was measured:
[1] = system: R5 strains (Bal, ADA, CSF-6 and BL-6); test: HIV RT activity in MDM infected with R5 strains; assay type: cell-based
Experimental: (§1) Based upon their differential use of the major HIV co-receptors, HIV isolates have been referred to as R5, X4 or R5X4 strains, respectively (29). The M-tropic (macrophage-tropic) R5 prototype strains (Bal and ADA), dual tropic strain (89.6) and X4 primary isolate (UG024), were obtained from the NIH AIDS Reagent Program. Primary M-tropic isolates (BL-6 and CSF-6) were isolated from the blood and cerebrospinal fluid cells, respectively, of a subject with AIDS.
(§2) The cells were also incubated with SP and/or anti-SP antibody. In this case, SP was incubated with (1:1000 dilution in 10% FCS DMEM) or without anti-SP antibody at room temperature for 10 min and then the mixture was added to the cell cultures for 2 h. When the cells were treated with the combination of CP-96,345 and SP, or CP-96,345, SP and anti-SP antibody, CP-96,345 was incubated with the cell culture for 10 min and then SP was added to the MDM or CP-96,345, SP and anti-SP (1:1000 in 10% FCS DMEM) were incubated for 10 min at room temperature and the mixture was incubated with the MDM for 2 h before infection with HIV. Untreated MDM served as controls. The cells were treated prior to, during, and throughout the infection. […]

[2] = system: HIV LTR promoter; test: HIV LTR-driven CAT activity assay in U38 cells; assay type: cell-based
Source text: ACH-2 and U38 cell lines (25, 26) were obtained from the NIH AIDS Reagent Program. DNA extracted from ACH-2 cells was used as a positive standard for HIV DNA PCR as previously reported (27). The U38 cell line contains stably integrated, silent copies of the HIV LTR (long terminal repeat) promoter linked to a CAT (chloramphenicol acetyltransferase) gene and was used to study the effect of SP and/or CP-96,345 and R-113281 on the activation of HIV LTR promoter.
Chloramphenicol acetyltransferase (CAT) activity assay:U38 cells (2×10^6 cells) were incubated with different concentrations of SP and/or CP-96,345 or R-113281 for 48 h. Untreated U38 cells were used as a background control. Cellular proteins were extracted using 1× Reporter Lysis Bufffer (Promega Corp., Madison, Wis.). The lysates were incubated with a mixture containing 0.15 μCi of ^14C-labeled chloramphenicol (DuPont Inc., Boston, Mass.) and 200 μg/ml of n-Butyryl CoA (Promega Corp., Madison, Wis.) in a total volume of 125 μl at 37° C. for 3 h. The acetylated forms of chloramphenicol were extracted with xylene (Aldrich Chemical Company, Milwaukee, Wis.). CAT activity of each sample was quantified using a liquid-scintillation counter (Packard Instrument Company, Downers Grove, Ill.). The results were expressed as the ratio of CAT activity (CPM) of the SP and/or CP-96,345-treated or R-113281-treated U38 to that of the background control.

[3] = system: X4 strain (UG024); test: HIV RT activity in MDM infected with X4 strain; assay type: cell-based
Experimental: as §1, §2

[4] = system: HIV Bal strain; test: HIV-induced syncytia formation in MDM; assay type: cell-based; details: 10^−7M; 12 days after infection (FIG. 2)
Experimental: Syncytia formation: To study the effect of neuropeptide antagonists on HIV-induced syncytia formation in MDM, 7-day-cultured macrophages were incubated in the presence or absence of CP-96,345 (10^−7M) for 2 h and then infected with HIV Bal strain. MDM which were neither incubated with CP-96,345 nor infected with HIV were used as a cell culture control. The morphology of HIV-induced syncytia formation was observed and photographed by a light microscopy (×400) 12 days after HIV infection.

[5] = system: SP mRNA; test: SP mRNA expression in MDM (real-time RT-PCR); assay type: cell-based, human; details: 4 hours; indicated concentration (FIG. 17)
Experimental: FIG. 17. A graph showing the effect of CP-96,345 on SP mRNA expression in MDM. The MDM were incubated with (+) or without (−) the NK-1R antagonist at the indicated concentration for 4 hours. The SP mRNA levels were determined by a real-time RT-PCR. The SP mRNA levels in the CP-96,345 treated MDM are expressed as a percentage of that in untreated MDM which are defined as 100%.
The effect of CP-96,345 on SP mRNA expression in MDM was also determined. The MDM were incubated with (+) or without (−) the NK-1R antagonist at the indicated concentration for 4 hours. The SP mRNA levels were determined by a real-time RT-PCR.

[6] = system: TNF-α; test: LPS-stimulated TNF-α production in MDM (ELISA); assay type: cell-based, human; details: 10^−9 to 10^−7M; LPS 1 ng/ml; 24 h; concentration-dependent (FIG. 11)
Experimental: (§3) In order to determine the role of CP-96,345 in the regulation of cytokine secretion, 7-day-cultured MDM were incubated with or without CP-96,345 (10^−9 to 10^−7M) and/or LPS (1 ng/ml) for 24 h. The culture supernatants were collected to determine TNF-α and IL-6 levels by ELISA. The ELISA kits were purchased from Endogen, Inc. (Woburn, Mass.).

[7] = system: IL-6; test: IL-6 production in LPS-treated MDM (ELISA); assay type: cell-based, human; details: 10^−9 to 10^−7M; LPS 1 ng/ml; 24 h (FIG. 11)
Experimental: as §3

[8] = system: HIV Bal strain; test: HIV RT activity in HIV Bal strain-infected MDM; assay type: cell-based, HIV-1; details: for RT activity during HIV Bal infection of MDM: 10^−7−10^−6M (FIG. 18)
Experimental: The cells were also incubated with SP and/or anti-SP antibody. In this case, SP was incubated with (1:1000 dilution in 10% FCS DMEM) or without anti-SP antibody at room temperature for 10 min and then the mixture was added to the cell cultures for 2 h. When the cells were treated with the combination of CP-96,345 and SP, or CP-96,345, SP and anti-SP antibody, CP-96,345 was incubated with the cell culture for 10 min and then SP was added to the MDM or CP-96,345, SP and anti-SP (1:1000 in 10% FCS DMEM) were incubated for 10 min at room temperature and the mixture was incubated with the MDM for 2 h before infection with HIV. Untreated MDM served as controls. The cells were treated prior to, during, and throughout the infection.
HIV Infection: After 2 h incubation with or without the reagents described above, the cells were infected with equal amounts of cell-free HIV based on p24 antigen content (20 ng/10^6 cells) overnight, and then washed to remove unbound virus. Fresh media containing SP and/or CP-96,345 or anti-SP antibody were added to the MDM as described above. The culture media and the reagents were replaced twice weekly. The culture supernatants were harvested for HIV reverse transcriptase (RT) activity determinations. After HIV infection, the MDM were incubated for 8 to 12 days. At the termination of the experiments, cellular RNA was extracted for assessment of HIV gag gene expression using RT-PCR or real time RT-PCR assays.
The HIV RT activity assay was carried out based on the technique of Willey et al. (30) with modification (22).

[9] = CP-96,345 10^−7M, 8 days after infection (FIG. 6)
[10] = R-113281 10^−6 M, 8 days after infection (FIG. 14)

Row | Compound | replication of R5 strains (RT activity) [1, 9] | effect on SP activation of HIV LTR-driven CAT activity ([2]; SP 10^−8M, CP-96,345 10^−6M, 48 h (FIG. 7)) | replication of X4 strain UG024 (RT activity) [3, 9] | HIV-induced giant syncytia formation in MDM [4] | SP mRNA expression in MDM [5] | LPS-stimulated TNF-α production in MDM [6] | IL-6 production in MDM [7] | viral replication by HIV RT activity vs HIV infection control ([8]; 10^−7M, 8 days after infection (FIG. 4)) | RT activity during HIV Bal infection of MDM [8] | HIV replication relative to HIV infection control ([8]; CP-96,345 10^−6M and/or anti-SP antibody 1:1000, 12 days (FIG. 5)) | inhibition at 1 µM ([8]; Human immunodeficiency virus 1, BAL, 192 h, 10^−6M, day 8 after HIV infection (FIG. 1B)) [%] | inhibition at 0.1 µM ([8]; Human immunodeficiency virus 1, BAL, 192 h, 10^−7M, day 8 after HIV infection (FIG. 1B)) [%] | inhibition at 0.01 µM ([8]; Human immunodeficiency virus 1, BAL, 192 h, 10^−8M, day 8 after HIV infection (FIG. 1B)) [%] | effect on SP-enhanced HIV replication in MDM (RT activity and gag mRNA) ([8]; SP 10^−6M, CP-96,345 10^−6M, anti-SP antibody 1:1000, 12 days (FIG. 5)) | replication of R5 strains (RT activity) [1, 10] | effect on SP activation of HIV LTR-driven CAT activity ([2]; SP (10^−8M), R-113281 10^−6M, 48 hours (FIG. 16)) | replication of X4 strain (RT activity) [3, 10] | HIV RT activity in Bal-infected MDM ([8]; day 8 post-infection, indicated concentrations (FIG. 12))
1 | COc1ccccc1CN[C@H]1C2CCN(CC2)[C@H]1C(c1ccccc1)c1ccccc1 [CP-96,345, 2S, 3S)-cis-2-(diphenylmethyl)-N-[(2-methoxyphenyl)-methyl]-1-azabicyclo[[2.2.2]octan-3-amine] | inhibited | abrogated | not affected | failed to develop the giant syncytia | significantly inhibited | attenuated | not affected | inhibited | inhibitory effects | down-regulated HIV replication to a level that was even lower than that of the HIV infection control | 54 | 43 | 1 | abrogated |  |  |  | 
2 | COc1cc(C(=O)N2CCO[C@](CCN3CCC4(CC3)c3ccccc3C[S@+]4[O-])(c3ccc(Cl)c(Cl)c3)C2)cc(OC)c1OC.Cl [R-113281] |  |  |  |  |  |  |  |  | inhibitory effects |  |  |  |  |  | inhibited | abrogated | not affected | significantly reduced
